What was measured:
hyaluronic acid = test: Hyaluronic acid secretion by HA ELISA in HaCaT keratinocytes; type: cell-based, human; settings: peptide 10, 50, 100 μM, 72 hours, FIG. 2
Experimental: (§1) First, NIH3T3 cells and HaCaT cells (human keratinocyte cell line) were seeded in a 24-well plate at a cell density of 1×10^4 cell/well, and then the cells were cultured in DMEM medium containing 10% fetal bovine serum (FBS) for 24 hours. The cultured cells were washed once with serum free DMEM medium, and the peptide of the present invention was mixed in 2 mL of the serum free DMEM medium at each of concentrations of 10 μM, 50 μM, 100 μM, and 5 ng/ml, and dispensed into three wells by 500 μL per condition. NIH3T3 cells were treated with 5 ng/ml of TGF-β1 instead of the above peptide as a positive control (PC). HaCaT cells were treated with 10 nM of IGF-1 instead of the above peptide as a positive control (PC). The cells were cultured in a CO2 incubator at 37° C. for 72 hours.
(§2) The medium of the cultured NIH3T3 and HaCaT cells was centrifuged to settle a suspended matter, a supernatant was transferred to an e-tube, and then each of ELISA (abcam, Cat No.: ab210579, UK) and hyaluronic acid (HA) ELISA (ECHELON biosciences, Cat No.: K-1200, USA) was performed using the same.

AQP3 = AQP3 mRNA level by RT-PCR in HaCaT keratinocytes; type: cell-based, human; settings: HaCaT cells, peptide 10, 50, 100 μM, 24 hours, FIG. 3
Experimental: (§3) First, HaCaT cells were seeded in a 6-well plate at a cell density of 3×10^5 cell/well, and then the cells were cultured in DMEM medium containing 10% fetal bovine serum (FBS) for 24 hours. The cultured cells were washed once with serum free DMEM medium, and then the peptide of the present invention was mixed in 1 mL of the serum free DMEM medium at each of concentrations of 10, 50, and 100 μM, and dispensed into the cells. A positive control (PC) was treated with 100 nM of EGF instead of the above peptide. The cells were cultured in a CO2 incubator at 37° C. for 24 hours.
(§4) The cultured cells were washed twice with PBS, and then RNA was extracted from the cells using easy blue (iNtRON, Cat. No.: 17061, Korea). The extracted RNA was subjected to RT reaction using a kit (enzynomics, Cat. No.: RT200, Korea). Thereafter, RT-PCR was performed using a PCR kit (enzynomics, Cat. No.: R581T, Korea). The sequences of the primers of SIRT1 and AQP3 used in RT-PCR and the sequence of the primer of GAPDH used to compare the total RNA amount of each treatment group are shown in [Table 2].

MMP-2 = MMP-2 activity after UVA irradiation, gelatin zymography; type: cell-based, mouse; settings: NIH3T3 cells, culture medium, peptide 10, 50, 100 μM, 6 J/cm^2 UVA, FIG. 6
MMP-1 [1] = test: MMP-1 expression after UVA irradiation, western blot; type: cell-based, mouse; settings: NIH3T3 cells, peptide 10, 50, 100 μM, 6 J/cm^2 UVA, FIG. 6
Experimental: (§5) First, NIH3T3 cells were seeded in a 6-well plate at a cell density of 5×10^5 cell/well, and then the cells were cultured in DMEM medium containing 10% fetal bovine serum (FBS) for 24 hours. The cultured cells were washed once with serum free DMEM medium, and the peptide of the present invention was mixed in 1 mL of the serum free DMEM medium at each of concentrations of 10, 50, and 100 μM, and dispensed into the cells. A positive control (PC) was treated with 2.5 mM of N-acetylcysteine (NaC) instead of the above peptide.
The cells were cultured in a CO2 incubator at 37° C. for 1 hour. The medium of the cultured cells was transferred to a tube (e-tube), 1 ml of PBS was added, and irradiation was performed with 6 J/cm^2 of UVA using a UV irradiator (VILBER LOURMAT, Cat No.: 3102-BSU, France). After removing PBS, 900 μL of the medium transferred to the tube was added, and culture was performed in a CO2 incubator at 37° C. for 6 hours. The medium of the cultured cells was transferred to a tube, the cells were washed twice with PBS, and then a cell lysis buffer was added to lyse the cells. A sample was prepared by treating the cells with 5× sample buffer, and then SDS-PAGE was performed using 10% SDS-PAGE gel. The proteins isolated through SDS-PAGE were transferred to a PVDF membrane. Blocking was performed at room temperature for 1 hour using 5% skim milk. […]

elastin = test: Elastin mRNA level after UVA irradiation, RT-PCR; type: cell-based, mouse; settings: NIH3T3 cells, peptide 10, 50, 100 μM, 6 J/cm^2 UVA, FIG. 5
Experimental: as §3, with “First, NIH3T3 cells were” for “First, HaCaT cells were”, “density of 5×10^5 cell/well, and” for “density of 3×10^5 cell/well, and”, “treated with 50 μM of Quercetin” for “treated with 100 nM of EGF”, “μM of Quercetin instead of” for “nM of EGF instead of”, “C. for 6 hours.” for “C. for 24 hours.”
(§6) The medium of the cultured cells was transferred to a tube (e-tube), 1 ml of PBS was added, and irradiation was performed with 6 J/cm^2 of UVA using a UV irradiator (VILBER LOURMAT, Cat No.: 3102-BSU, France). After removing PBS, 900 μL of the medium transferred to the tube was dispensed, and culture was performed in a CO2 incubator at 37° C. for 6 hours. The cultured cells were washed twice with PBS, and then RNA was extracted from the cells using easy blue (iNtRON, Cat. No.: 17061, Korea). The amount of RNA extracted was quantified, 1,000 ng of RNA was added per tube, and RT reaction was performed using a kit (enzynomics, Cat. No.: RT200, Korea) Thereafter, RT-PCR was performed using a PCR kit (enzynomics, Cat. No.: R581T, Korea). […]

MMP-1 [2] = test: MMP-1 protein after heat treatment, western blot; type: cell-based, mouse; settings: NIH3T3 cells, peptide 10, 50, 100 μM, 44° C. for 40 minutes, FIG. 7
Experimental: as §5
The cells were cultured in a CO2 incubator at 37° C. for 24 hours. A lid and a lower plate of the 6-well plate were sealed with a paraffin film for heat treatment, the lower plate was immersed in a water bath at 44° C., and culture was performed for 40 minutes. After removing the medium, 1 mL of serum free DMEM medium was added, and culture was performed in a CO2 incubator at 37° C. for 8 hours. Thereafter, the cells were washed twice with PBS, and then a cell lysis buffer was added to obtain a lysate.
A sample was prepared by treating the cells with 5× sample buffer, and then SDS-PAGE was performed using 10% SDS-PAGE gel. The proteins isolated through SDS-PAGE were transferred to a PVDF membrane, and blocking was performed at room temperature for 1 hour using 5% skin milk. […]

elastin gene = test: Elastin gene expression by RT-PCR in fibroblasts; type: cell-based, mouse; settings: NIH3T3 cells, peptide 10, 50, 100 μM, 24 hours, FIG. 1
Experimental: (§7) First, NIH3T3 cells (mouse fibroblast cell line) were seeded in a 6-well plate at a cell density of 3×10^5 cell/well, and then the cells were cultured in DMEM medium containing 10% fetal bovine serum (FBS) for 24 hours. The cultured cells were washed once with serum free DMEM medium, and the peptide of the present invention was mixed in 1 mL of the serum free DMEM medium at each of concentrations of 10, 50, and 100 μM, and dispensed into the cells. A positive control (PC) was treated with 5 ng/ml of TGF-β1 instead of the above peptide. The cells were cultured in a CO2 incubator at 37° C. for 24 hours.
(§8) The cultured cells were washed twice with PBS, and RNA was extracted from the cells using easy blue (iNtRON, Cat. No.: 17061, Korea). The amount of RNA extracted was quantified, 1,000 ng of RNA was added per tube, and RT reaction was performed using a kit (enzynomics, Cat. No.: […], Korea). RT-PCR was performed using a PCR kit (enzynomics, Cat. No.: […], Korea). The sequences of the primers of fibronectin and elastin used in RT-PCR and the sequence of the primer of GAPDH used to compare the total RNA amount of each treatment group are shown in [Table 2].

collagen = test: Collagen protein secretion by ELISA in NIH3T3 fibroblasts; type: cell-based, mouse; settings: peptide 10, 50, 100 μM, 72 hours, FIG. 2
Experimental: as §1, §2

fibronectin = test: Fibronectin mRNA level after UVA irradiation, RT-PCR; type: cell-based, mouse; settings: NIH3T3 cells, peptide 10, 50, 100 μM, 6 J/cm^2 UVA, FIG. 5
Experimental: as §3, with “First, NIH3T3 cells were” for “First, HaCaT cells were”, “density of 5×10^5 cell/well, and” for “density of 3×10^5 cell/well, and”, “treated with 50 μM of Quercetin” for “treated with 100 nM of EGF”, “μM of Quercetin instead of” for “nM of EGF instead of”, “C. for 6 hours.” for “C. for 24 hours.”
as §6

Colla1 = Colla1 mRNA level after UVA irradiation, RT-PCR; type: cell-based, mouse; settings: NIH3T3 cells, peptide 10, 50, 100 μM, 6 J/cm^2 UVA, FIG. 5
Experimental: as §3, with “First, NIH3T3 cells were” for “First, HaCaT cells were”, “density of 5×10^5 cell/well, and” for “density of 3×10^5 cell/well, and”, “treated with 50 μM of Quercetin” for “treated with 100 nM of EGF”, “μM of Quercetin instead of” for “nM of EGF instead of”, “C. for 6 hours.” for “C. for 24 hours.”
as §6

[3] = system: intracellular reactive oxygen species in NIH3T3 cells; test: Intracellular ROS level after UVA irradiation (DCFH-DA, FACS); type: cell-based, mouse; settings: peptide 10, 50, 100 μM, 8 J/cm^2 UVA, 24 hours after irradiation, FIG. 4
Experimental: as §5, with “medium, and then the peptide” for “medium, and the peptide”, “treated with 7.5 mM of” for “treated with 2.5 mM of”
The cells were cultured in a CO2 incubator at 37° C. for 1 hour. The medium of the cultured cells was transferred to a tube, 1 ml of PBS was added, and irradiation was performed with 8 J/cm^2 of UVA using a UV irradiator (VILBER LOURMAT, Cat No.: 3102-BSU, France). After removing PBS, 900 μL of the medium transferred to the tube was dispensed, and culture was performed in a CO2 incubator at 37° C. for 24 hours. After treatment with 10 μM of dichloro-dihydro-fluorescein diacetate (DCFH-DA), wrapping with a foil was performed, and culture was performed in a CO2 incubator at 37° C. for 30 minutes. The cells were washed twice with PBS, and 500 μL of 1XTE was dispensed to isolate the cells. After centrifugation, the cells were washed with PBS, and a fluorescence value was measured through FACS.

SIRT1 = SIRT1 mRNA level by RT-PCR in HaCaT keratinocytes; type: cell-based, human; settings: HaCaT cells, peptide 10, 50, 100 μM, 24 hours, FIG. 3
Experimental: as §3, §4

fibronectin gene = test: Fibronectin gene expression by RT-PCR in fibroblasts; type: cell-based, mouse; settings: NIH3T3 cells, peptide 10, 50, 100 μM, 24 hours, FIG. 1
Experimental: as §7, §8

KRRRKRK [SEQ ID NO: 1]
protein secretion of hyaluronic acid (hyaluronic acid): gradually increased as the concentration of the peptide increased | mRNA level of AQP3 (AQP3): increased | activity of MMP-2 increased by UV irradiation (MMP-2): inhibited | expression of MMP-1 increased by UV irradiation (MMP-1 [1]): inhibited | mRNA level of elastin decreased by UV irradiation (elastin): increased again | amount of secretion of MMP-1 protein whose expression was increased by heat treatment (MMP-1 [2]): decreased | expression of elastin gene (elastin gene): gradually increased as the concentration of the peptide increased | protein secretion of collagen (collagen): gradually increased as the concentration of the peptide increased | mRNA level of fibronectin decreased by UV irradiation (fibronectin): increased again | mRNA level of Colla1 decreased by UV irradiation (Colla1): increased again | intracellular reactive oxygen species level increased by UV irradiation [3]: decreased | mRNA level of SIRT1 (SIRT1): increased | expression of fibronectin gene (fibronectin gene): gradually increased as the concentration of the peptide increased

— patent US20240391955A1, “PEPTIDE HAVING ANTI-AGING ACTIVITY, AND USE THEREOF” (CAREGEN CO., LTD., priority 2021, published 2024)
